Test systems include HCT-15 colon; LOX IMVI melanoma; MALME-3M melanoma; NCI-H226 lung; NCI-H23 lung; NCI-H522 lung; OVCAR-8 ovarian; SF-268 CNS; SK-MEL-28 melanoma.
Common to all, as to test: inhibition of tumour cell growth, NCI panel, 48 h

Each structure is given as a SMILES string.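 Growth conditions: 96-well plates. Treatment: test compound, 48 hours, 5 concentrations. Analysis: linear interpolation between bracketing concentrations; unreached endpoints set to highest concentration. GI50 marks 50% less growth. TGI is the concentration that stops growth completely.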

Regarding `O=c1nc(N2CCCC2)nc(N2CCCC2)s1`, the TGI with HCT-15 colon, in the assay on LOX IMVI melanoma, in the assay on MALME-3M melanoma, in the assay with NCI-H226 lung, with NCI-H23 lung and in the assay with NCI-H522 lung was above 100 µM each time. In addition, the TGI in the assay with OVCAR-8 ovarian, with SF-268 CNS and with SK-MEL-28 melanoma was above 100 µM in each case.

On to `OCCCc1cnco1`, for which the TGI in the assay on HCT-15 colon, in the assay on LOX IMVI melanoma, with MALME-3M melanoma, with NCI-H226 lung, in the assay on NCI-H23 lung and in the assay on OVCAR-8 ovarian was above 100 µM each time. For the same compound, the TGI with SF-268 CNS and in the assay on SK-MEL-28 melanoma was above 100 µM in each case.

As to `CC(=O)N(CCN1C(=O)c2ccccc2C1=O)CCN1C(=O)c2ccccc2C1=O`, the TGI in the assay on HCT-15 colon, with LOX IMVI melanoma, in the assay on NCI-H23 lung, in the assay with NCI-H522 lung, in the assay with OVCAR-8 ovarian and with SF-268 CNS was above 100 µM each time. Also, the TGI in the assay with SK-MEL-28 melanoma is above 100 µM.

In the case of `C=C1C(=O)c2cc3c(cc2C(c2cc(OC)c(OC)c(OC)c2)[C@@H]1C(=O)O)OCO3` (stereo not given in full), the TGI in the assay on HCT-15 colon, in the assay with LOX IMVI melanoma, with MALME-3M melanoma, with NCI-H226 lung, in the assay on NCI-H23 lung and with NCI-H522 lung was above 100 µM in each case. Moreover, the TGI in the assay on OVCAR-8 ovarian and with SK-MEL-28 melanoma was above 100 µM each time.

`O=C(Cc1ccccc1)N/N=C(/c1nc2ccc([N+](=O)[O-])cc2[nH]c1=O)C(O)c1ccccc1Cl` (stereo not given): the TGI in the assay on HCT-15 colon, in the assay on LOX IMVI melanoma, with MALME-3M melanoma, with NCI-H226 lung, in the assay with NCI-H23 lung and with NCI-H522 lung was above 100 µM throughout. The TGI in the assay with OVCAR-8 ovarian, in the assay with SF-268 CNS and with SK-MEL-28 melanoma was above 100 µM each time.

On to `CC(=O)OCC1OC([Se-])C(OC(C)=O)C(OC(C)=O)C1OC(C)=O.N#CCC[PH+](CCC#N)CCC#N.[Au+]` (stereo not given), for which the GI50 in the assay on HCT-15 colon was 3.92 µM; in the assay on LOX IMVI melanoma, 4.34 µM; with MALME-3M melanoma, 15 µM; in the assay with NCI-H226 lung, 3.73 µM; with NCI-H23 lung it was 4.55 µM; in the assay on NCI-H522 lung, 5.75 µM. The figures for the GI50 in the assay on OVCAR-8 ovarian, with SF-268 CNS and in the assay with SK-MEL-28 melanoma were 12.7 µM, 10.1 µM and 9.01 µM, respectively. Further, the TGI was determined as 23.4 µM in the assay on HCT-15 colon; 28.9 µM in the assay with LOX IMVI melanoma; 48.3 µM in the assay on MALME-3M melanoma; 16.3 µM in the assay on NCI-H226 lung; 23.1 µM in the assay on NCI-H23 lung; 40.8 µM with NCI-H522 lung. Besides, the TGI in the assay on OVCAR-8 ovarian is above 93.5 µM; with SF-268 CNS it was above 100 µM; in the assay with SK-MEL-28 melanoma, 60.5 µM.

Take `COc1cc(C2C(C(=O)O)=C(COC(C)=O)Oc3cc4c(cc32)OCO4)cc(OC)c1OC(C)=O` (stereo not given): the TGI in the assay on HCT-15 colon, with LOX IMVI melanoma, in the assay with MALME-3M melanoma, with NCI-H23 lung, with OVCAR-8 ovarian and in the assay with SK-MEL-28 melanoma was above 100 µM throughout.

As to `O=C(N/C=C/C=C/Sc1ccccc1)OCc1ccccc1`, the TGI in the assay on HCT-15 colon came out at 36.2 µM; in the assay with LOX IMVI melanoma, 32 µM; in the assay with NCI-H226 lung it was 41.3 µM; in the assay on NCI-H23 lung, 48.9 µM; in the assay on NCI-H522 lung it was 29.7 µM; in the assay on OVCAR-8 ovarian it was 29.5 µM. Further, the TGI in the assay with SF-268 CNS was 34.2 µM; with SK-MEL-28 melanoma, 34.3 µM.

Take `NC(CO)c1ccc(OCc2ccccc2)cc1` (stereo not given): the TGI with HCT-15 colon, with LOX IMVI melanoma, in the assay with MALME-3M melanoma, in the assay on NCI-H226 lung, with NCI-H23 lung and in the assay on NCI-H522 lung was above 100 µM each time. Further, the TGI in the assay with OVCAR-8 ovarian, in the assay on SF-268 CNS and in the assay on SK-MEL-28 melanoma was above 100 µM throughout.

For the compound `O=[N+]([O-])c1ccc(/C(Cl)=C/c2ccc(/C=C(\Cl)c3ccc([N+](=O)[O-])cc3[N+](=O)[O-])cc2)c([N+](=O)[O-])c1`, the TGI in the assay on HCT-15 colon, in the assay with LOX IMVI melanoma, with MALME-3M melanoma, with NCI-H226 lung, in the assay on NCI-H23 lung and with NCI-H522 lung was above 100 µM each time. Further, the TGI in the assay with OVCAR-8 ovarian, in the assay with SF-268 CNS and with SK-MEL-28 melanoma was above 100 µM each time.

As to `COC1=CC(=O)OC(/C=C(C)/C=C/C2=C(C)CCCC2(C)C)C1` (stereo not given), the TGI with MALME-3M melanoma, with NCI-H226 lung, in the assay on NCI-H23 lung, in the assay on NCI-H522 lung, with OVCAR-8 ovarian and with SF-268 CNS was above 100 µM throughout. The same compound registered a TGI in the assay with SK-MEL-28 melanoma above 100 µM.

`CN(C)c1ccc(/C=c2\sc3nnc(-c4cccnc4)n3c2=O)cc1`: the TGI in the assay on HCT-15 colon, in the assay with LOX IMVI melanoma, with MALME-3M melanoma, in the assay with NCI-H226 lung, in the assay on NCI-H23 lung and in the assay on NCI-H522 lung was above 100 µM each time. In addition, the TGI in the assay on OVCAR-8 ovarian, in the assay with SF-268 CNS and with SK-MEL-28 melanoma was above 100 µM each time.

Take `CCc1nc2ccccc2c(=O)n1/N=C(\N=Nc1ccc(Cl)cc1)c1ccccc1`: the TGI is above 100 µM with HCT-15 colon; 40.5 µM in the assay with LOX IMVI melanoma; 90 µM in the assay on MALME-3M melanoma; 63.4 µM in the assay on NCI-H226 lung; above 100 µM with NCI-H23 lung; above 69.3 µM in the assay with NCI-H522 lung. Besides, the values for the TGI with OVCAR-8 ovarian, in the assay with SF-268 CNS and in the assay with SK-MEL-28 melanoma were above 100 µM, 95.3 µM and above 100 µM, respectively.

Consider `CCCCN(CCCC)CC(C(=O)Nc1ccc([N+](=O)[O-])cc1[N+](=O)[O-])/C(C)=N\NC(=O)C[N+](C)(C)C` (stereo not given), for which the TGI in the assay with HCT-15 colon, in the assay on LOX IMVI melanoma, in the assay on MALME-3M melanoma, with NCI-H226 lung, in the assay on NCI-H23 lung and in the assay on NCI-H522 lung was above 100 µM in each case. Further, the TGI in the assay on OVCAR-8 ovarian, in the assay on SF-268 CNS and in the assay on SK-MEL-28 melanoma was above 100 µM each time.

Source of the values: PubChem BioAssay (NCI).
